Test results as given in patent US10065990B2, “Cyclic peptide compound, and preparation method, pharmaceutical composition and use thereof” (HANGZHOU GUANYU BIO-MEDICAL CO., LTD, priority 2013, dated 2018).

Experiments:
[1] = tested on: lncap (prostate cancer cells); assay: MTT cancer cell growth inhibition; format: cell-based; details: Homo sapiens, LNCaP, 72 h, lncap cells, MTT, 72 hours incubation; read-out: GI50 lnca
How it was run: (§1)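 Tumour cells in 10% FBS-supplemented DMEM or RPMI 1640 are plated at 1500 per well, dosed next day with compound (10^−5 through 10^−10 M, final) and kept 72 h. MTT is added for 4 h; dissolved formazan is measured at 570 nm and GI50 determined.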

[2] = tested on: HT1080 (human fibrosarcoma cells); assay: MTT cancer cell growth inhibition; format: cell-based; details: Homo sapiens, HT-1080, 72 h, HT1080 cells, MTT, 72 hours incubation; read-out: GI50 HT1
How it was run: as §1

[3] = tested on: N-87 (human gastric cancer cells); assay: MTT cancer cell growth inhibition; format: cell-based; details: Homo sapiens, 72 h, MTT, 72 hours incubation, N-87 cells; read-out: GI50 N-87
How it was run: as §1

[4] = tested on: Bel-7402 (human hepatoma cells); assay: MTT cancer cell growth inhibition; format: cell-based; details: Homo sapiens, Bel-7402, 72 h, MTT, 72 hours incubation, Bel-7402 cells; read-out: GI50 Bel-7402
How it was run: as §1

[5] = tested on: SGC-7901 (human gastric cancer cells); assay: MTT cancer cell growth inhibition; format: cell-based; details: Homo sapiens, SGC-7901, 72 h, MTT, 72 hours incubation, SGC-7901 cells; read-out: GI50 SGC-7901
How it was run: as §1

[6] = tested on: HCC827 (human non-small cell lung cancer cells); assay: MTT cancer cell growth inhibition; format: cell-based; details: Homo sapiens, HCC827, 72 h, MTT, 72 hours incubation, HCC827 cells; read-out: GI50 HCC827
How it was run: as §1

[7] = tested on: K562 (human leukemia cells); assay: MTT cancer cell growth inhibition; format: cell-based; details: Homo sapiens, K562, 72 h, MTT, 72 hours incubation, K562 cells; read-out: GI50 K562
How it was run: as §1

[8] = tested on: U937 (human leukemia cells); assay: MTT cancer cell growth inhibition; format: cell-based; details: Homo sapiens, U-937, 72 h, U937 cells, MTT, 72 hours incubation; read-out: GI50 U93
How it was run: as §1

[9] = tested on: KBM5-T315I (human chronic myelogenous leukemia); assay: MTT cancer cell growth inhibition; format: cell-based; details: Homo sapiens, 72 h, MTT, 72 hours incubation, KBM5-T315I cells; read-out: GI50 KBM5-T315I
How it was run: as §1

[10] = tested on: MOLT-4 (human acute lymphoblastic leukemia cells); assay: MTT cancer cell growth inhibition; format: cell-based; details: Homo sapiens, MOLT-4, 72 h, MOLT-4 cells, MTT, 72 hours incubation; read-out: GI50 Mol
How it was run: as §1

[11] = tested on: A549 (human lung cancer cells); assay: MTT cancer cell growth inhibition; format: cell-based; details: Homo sapiens, A549, 72 h, A549 cells, MTT, 72 hours incubation; read-out: GI50 A54
How it was run: as §1

[12] = tested on: MCF-7 (human breast cancer cells); assay: MTT cancer cell growth inhibition; format: cell-based; details: Homo sapiens, MCF7, 72 h, MCF-7 cells, 72 hours incubation, read-out: GI50 MCF
How it was run: as §1

[13] = tested on: BGC-823 (human gastric cancer cells); assay: MTT cancer cell growth inhibition; format: cell-based; details: Homo sapiens, BGC-823, 72 h, BGC-823 cells, MTT, 72 hours incubation; read-out: GI50 BG
How it was run: as §1

[14] = tested on: KBM-5 (human chronic myelogenous leukemia); assay: MTT cancer cell growth inhibition; format: cell-based; details: Homo sapiens, KBM5, 72 h, MTT, 72 hours incubation, KBM-5 cells; read-out: GI50 KBM-5
How it was run: as §1

[15] = tested on: Hela (human cervical cancer cells); assay: MTT cancer cell growth inhibition; format: cell-based; details: Homo sapiens, HeLa, 72 h, Hela cells, MTT, 72 hours incubation; read-out: GI50 Hela
How it was run: as §1

[16] = tested on: H1975 (non-small cell lung adenocarcinoma); assay: MTT cancer cell growth inhibition; format: cell-based; details: Homo sapiens, NCI-H1975, 72 h, MTT, 72 hours incubation, H1975 cells; read-out: GI50 H1975
How it was run: as §1

[17] = tested on: MDA-MB-231 (breast cancer cells); assay: MTT cancer cell growth inhibition; format: cell-based; details: Homo sapiens, MDA-MB-231, 72 h, read-out: GI50 MDA-MB-231, MTT, 72 hours incubation, MDA-MB-231 cells
How it was run: as §1

[18] = tested on: DU145 (human prostate cancer cells); assay: MTT cancer cell growth inhibition; format: cell-based; details: Homo sapiens, DU-145, 72 h, DU145 cells, MTT, 72 hours incubation; read-out: GI50 Du1
How it was run: as §1

[19] = tested on: Huh-7 (human hepatoma cells); assay: MTT cancer cell growth inhibition; format: cell-based; details: Homo sapiens, Huh-7, 72 h, MTT, 72 hours incubation, Huh-7 cells; read-out: GI50 Huh-7
How it was run: as §1

[20] = tested on: PANC-1 (Pac-1, human pancreatic cancer cells); assay: MTT cancer cell growth inhibition; format: cell-based; details: Homo sapiens, PANC-1, 72 h, PANC-1 cells, MTT, 72 hours incubation; read-out: GI50 PAN
How it was run: as §1

[21] = biological target: T1, HDAC7 (Homo sapiens, UniProt Q8WUI4); assay: HDAC biochemical activity measurement (fluorescent substrate deacetylation);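 note: fluorogenic deacetylation assay using acetyl-lysine substrate at 20 µM, enzyme and compound incubated 30 min at 37 °C, then developer added, fluorescence read at 360/460 nm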; details: HDAC7; 37° C. 30 minutes
T1 sequence (Q8WUI4 1-952): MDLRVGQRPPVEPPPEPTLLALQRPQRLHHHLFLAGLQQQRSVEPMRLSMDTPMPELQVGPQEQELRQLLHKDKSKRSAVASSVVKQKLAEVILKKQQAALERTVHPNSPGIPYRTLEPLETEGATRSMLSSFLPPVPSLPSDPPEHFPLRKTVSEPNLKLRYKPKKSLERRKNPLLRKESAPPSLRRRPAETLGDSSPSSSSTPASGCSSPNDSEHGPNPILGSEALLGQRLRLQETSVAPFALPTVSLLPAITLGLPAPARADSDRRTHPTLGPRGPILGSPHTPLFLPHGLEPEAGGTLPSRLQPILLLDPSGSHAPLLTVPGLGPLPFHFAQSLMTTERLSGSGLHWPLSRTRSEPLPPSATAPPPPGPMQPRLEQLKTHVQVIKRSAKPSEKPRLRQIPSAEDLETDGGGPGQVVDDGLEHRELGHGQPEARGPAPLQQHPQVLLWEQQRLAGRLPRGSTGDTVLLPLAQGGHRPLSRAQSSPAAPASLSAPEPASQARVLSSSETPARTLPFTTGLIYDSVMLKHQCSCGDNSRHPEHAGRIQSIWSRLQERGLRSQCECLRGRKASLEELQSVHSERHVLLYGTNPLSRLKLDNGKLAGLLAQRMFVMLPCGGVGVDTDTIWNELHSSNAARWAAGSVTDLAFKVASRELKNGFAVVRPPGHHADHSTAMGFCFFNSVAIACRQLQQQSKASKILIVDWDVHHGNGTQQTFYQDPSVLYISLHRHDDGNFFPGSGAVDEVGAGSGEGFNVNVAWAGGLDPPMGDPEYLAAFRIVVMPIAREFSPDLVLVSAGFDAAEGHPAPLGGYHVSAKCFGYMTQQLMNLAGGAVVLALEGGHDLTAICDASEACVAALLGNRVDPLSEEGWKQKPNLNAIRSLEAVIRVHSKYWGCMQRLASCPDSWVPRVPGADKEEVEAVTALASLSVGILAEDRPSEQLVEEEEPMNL

| SMILES | GI50 [1] [µM] | GI50 [2] [µM] | GI50 [3] [µM] | GI50 [4] [µM] | GI50 [5] [µM] | GI50 [6] [µM] | GI50 [7] [µM] | GI50 [8] [µM] | GI50 [9] [µM] | GI50 [10] [µM] | GI50 [11] [µM] | GI50 [12] [µM] | GI50 [13] [µM] | GI50 [14] [µM] | GI50 [15] [µM] | GI50 [16] [µM] | GI50 [17] [µM] | GI50 [18] [µM] | GI50 [19] [µM] | GI50 [20] [µM] | further results |
| --- | --- | --- | --- | --- | --- | --- | --- | --- | --- | --- | --- | --- | --- | --- | --- | --- | --- | --- | --- | --- | --- |
| C/C=C1\NC(=O)c2ccc(SC)c(n2)CNC(=O)C[C@@H](/C=C/CCS)OC(=O)[C@H](C(C)C)NC1=O [Compound 228] | 0.02 | 0.04 | 0.035 | 0.056 | 0.012 | 0.017 | 0.062 | 0.04 | 0.033 | 0.05 | 0.03 | 0.03 | 0.06 | 0.062 | 0.01 | 0.048 | 0.069 | 0.02 | 0.035 | 0.03 | IC50 HDAC7 [21]: no activity |
| C/C=C1\NC(=O)c2nc(ccc2SC)CNC(=O)C[C@@H](/C=C/CCS)OC(=O)[C@H](CC)NC1=O [Compound 229] | 0.03 | 0.01 | 0.077 | 0.037 | 0.091 | 0.077 | 0.086 | 0.02 | 0.053 | 0.03 | 0.06 | 0.07 | 0.74 | 0.071 | 0.03 | 0.038 | 0.023 | 0.05 | 0.028 | 0.05 | IC50 HDAC7 [21]: no activity |
| C/C=C1\NC(=O)c2cc(SC)cc(n2)CNC(=O)C[C@@H](/C=C/CCS)OC(=O)[C@H](CC)NC1=O [Compound 230] | 0.05 | 0.02 | 0.036 | 0.023 | 0.048 | 0.035 | 0.023 | 0.02 | 0.087 | 0.03 | 0.02 | 0.07 | 0.03 | 0.026 | 0.02 | 0.035 | 0.083 | 0.05 | 0.091 | 0.03 | IC50 HDAC7 [21]: no activity |
| C/C=C1\NC(=O)c2ccc(SC)c(n2)CNC(=O)C[C@@H](/C=C/CCS)OC(=O)[C@H](CC)NC1=O [Compound 231] | 0.03 | 0.03 | 0.036 | 0.058 | 0.011 | 0.077 | 0.037 | 0.08 | 0.057 | 0.05 | 0.06 | 0.08 | 0.01 | 0.038 | 0.04 | 0.025 | 0.025 | 0.05 | 0.048 | 0.01 | IC50 HDAC7 [21]: no activity |
